Measurements taken from a melting point compilation (Tetko et al.; mined from patent text by program, amines drawn as free bases though some values may be those of a salt).

Structure (SMILES)	melting point [°C]
COc1ccc(O)c(CNc2ccc(NC(=O)CC(C)(C)C)cc2)c1	126 to 129
CCOc1cccnc1C(=O)NCCNC(=O)OC(C)(C)C	125 to 126
COC(=O)c1c(C)ccc(C(O)=S)c1C	178
CCOC(=O)c1ccc(OCCCC2CCN(c3ccc(-c4ccc(F)cc4)nn3)CC2)cc1	160
CCNC(=O)Cn1cccc(O)c1=O	214 to 215
O=C(CNC(=O)c1ccc([N+](=O)[O-])c(F)c1)OCC(Cl)(Cl)Cl	142 to 144
CCCOCc1cc2cc(-c3ccc4c(c3)C=C(C(=O)Nc3ccc(CN(C)C5CCOCC5)cc3)CCS4(=O)=O)ccc2o1	204 to 206
CC(C)(C)c1ccc(Oc2ccc(NC(=O)c3ccccc3C(c3ccc(O)cc3)c3ccc(O)cc3)cn2)cc1	121 to 125
CCC1CCCCN1C(=O)C=Cc1c(-c2cccc(N(C)C)c2)nn2ccccc12 (stereo not given)	180 to 184
Cc1cc(O)cc(C)c1[N+](=O)[O-]	106 to 108
COc1cc(OCC(CO)CO)c(C=CC(=O)c2ccc(C(=O)O)cc2)cc1-c1cccs1	219 to 220
O=Cc1ccc(OCc2cccc(Cl)c2)cc1	51 to 54
Clc1ccc(C2CCN(Cc3cncc(-c4ccccc4)c3)CC2)cc1	142 to 143
Cc1ccc2c(c1)CSc1nnc(C)n1-2	168
O=C1C(Cl)=C(Cl)C(=O)c2cc(Cl)ccc21	148
CC(=O)C(C(N)=O)=C(C)[N+](=O)[O-]	159 to 161
OCc1ccc(-c2csc(-c3cn([C@H]4CN5CCC4CC5)nn3)c2)cc1	196
O=[N+]([O-])c1ccc(Oc2ccc3cc(Oc4ccc([N+](=O)[O-])c(O)c4)ccc3c2)cc1O	244 to 246
O=P(O)(O)C(CCCc1ccc(-c2ccccc2)cc1)P(=O)(O)O	199 to 200
CCCCCCCCCCCCCCOc1ccc(C(=O)OC)cc1	56 to 58
CN(C)C1CCN(c2cc3ccc(Br)cc3c(=O)[nH]2)CC1	227 to 228
O=C1COc2ccc(N3C(=O)C4=C(CCCC4)C3=O)cc2N1CC1CCOCC1	187 to 189
COc1ccc(-c2nc(Sc3cccc(OC)c3)[nH]c2-c2ccc(OC)cc2)cc1	101
Nc1ccc(Nc2c(CC3CC4C=CC3C4)cc(C(=O)O)cc2S(N)(=O)=O)cc1 (stereo not given)	245
Cc1ccc(Sc2c(-c3ccc(S(C)(=O)=O)cc3)cnn(-c3cccc(Cl)c3)c2=O)cc1	178
Cc1cc(Oc2cc(C(F)(F)F)ccn2)ccc1OCCNc1ncnc2scnc12	107 to 111
CCN1C(=O)C(C)(C)C(=O)N(C)c2cc(CN(CCn3c(=O)ccc4ccccc43)Cc3cnccc3C)ccc21	120 to 121
Cc1cc(-n2ccnc2)c2cccc(OCc3c(Cl)ccc(S(=O)(=O)N4CCC[C@H]4C(=O)NCCc4ccncc4)c3Cl)c2n1	120

Structure (SMILES)	melting point [°C]
CC(C)OC(=O)c1cc(N)c(F)c(Cl)n1	191 to 192
COc1ccc(CC2CCC3=C(C2)CC(C)C(=O)N3)cc1 (stereo not given)	182 to 184
FC(F)(F)c1cc(Cl)c(-n2ncc(CS)n2)c(Cl)c1	58 to 60
COc1ccc(CCc2ccc(N)cc2)cc1OC	115 to 116
CC(C)(S)CNC(=O)c1nccnc1C(=O)O	141 to 144
ON=C1CCC2(CC1)Cc1ccccc1C2	120 to 122
Cc1nnc(-c2ccc3occ(-c4ccc(S(C)=O)cc4Cl)c3c2)o1 (stereo not given)	175 to 176
CCOC(=O)C(Cc1ccc(C(F)(F)F)cc1)C(=O)c1ccoc1 (stereo not given)	55 to 56
Nc1cc(=O)n(Cc2ccc(F)cc2)[nH]1	148
CCN1c2ncc(/C=C/c3ccncc3)cc2C(=O)N(C)c2cccnc21	150
CC1(C)Cc2cccc(C(=O)O)c2S1	179 to 182
CSc1cc(C)nc(SC)c1NC(=O)CCCBr	139 to 140
CCCCN(CC)c1nc(C)nc2c1NC(=S)CN2c1ccc(C(C)C)cc1Br	148 to 149
CS(=O)(=O)Oc1ccc(C(c2ccc(OS(C)(=O)=O)c([N+](=O)[O-])c2)(C(F)(F)F)C(F)(F)F)cc1[N+](=O)[O-]	119 to 121
Cc1cc(OC2CCS(=O)(=O)CC2)cc(C)c1-c1cccc(COc2ccc(C3CC3C(=O)O)cc2)c1 (stereo not given)	161 to 162
CCOP(=O)(OCC)C(Sc1cc(Br)ccc1O)=P(OCC)(OCC)OCC	118 to 120
CCOC(=O)C1=C(C(OCC)OCC)NC(C)=C(C(=O)OCc2ccccc2)C1c1ccccc1[N+](=O)[O-] (stereo not given)	103 to 104
CN1C[C@@H](C(=O)OC(C)(C)C)NC1=O	135 to 136
O=C1CSC(=S)N1N=c1sc2ccc([N+](=O)[O-])cc2s1	315
CN1CCN(C2=Nc3cc(C(F)(F)F)ccc3Nc3cscc32)CC1	202
N#CC(C(=O)CBr)c1cccc(Cl)c1 (stereo not given)	124 to 132
CCC(=O)NCCC1CCc2cc(F)c3c(c21)C=CCO3 (stereo not given)	106 to 108
COc1cc(COc2nn(-c3ccccc3)cc2CCC(=O)O)ccc1OCc1nc(-c2ccco2)oc1C	161 to 162
COc1cc(Cc2cnc(N)nc2N)c2c(c1OC)OCC=C2	232 to 234
COCc1cc(C(O)CN(Cc2ccccc2)Cc2ccccc2)ccc1OCc1ccccc1 (stereo not given)	52 to 57
CC1Oc2ccc(C3=NNC(=O)CC3)cc2NC1=O (stereo not given)	275 to 276
O=C(O)CCCCc1ccc(CCNS(=O)(=O)c2ccc(Cl)cc2)cc1	118 to 120

Further lines, results first:

melting point [°C]	Structure (SMILES)
98 to 100	O=C(O)C(O)c1cccc(OCc2ccccc2Cl)c1OCc1ccccc1Cl (stereo not given)
151 to 152	COC(=O)c1ccc2nc(Sc3nnc(C)s3)c(C(F)(F)F)nc2c1
> 250	Cn1c(=O)oc2cc3c(cc21)C1(CO3)C(=O)N(CC2CCCO2)c2ccccc21 (stereo not given)
204 to 206	COc1ccc(C(=O)Nc2ccc(C3(CNC(C)=O)CC3)cc2)cc1OC
204 to 205	CC(=O)Nc1ccccc1C#Cc1c(F)c(F)nc(F)c1F
145 to 146	CCOC(=N)c1c(O)ccc2ccccc12
86 to 88	CCOC(=O)CN(Cc1ccccc1)C(=S)CCc1nc2c(F)c(F)cc(F)c2s1
> 320	O=c1cnc2cc3[nH]c(-c4ccncc4)nc3cc2[nH]1
208 to 210	C=CCNc1nc(-c2ccc(=O)n(C(C)C)n2)c(-c2ccccc2)nc1N
92 to 94	COC(=O)c1cccc(/C=C/c2cccc(OC)c2)c1
161 to 163	CCN(CC)CC(C)COc1ccc2nc(-c3cccc(OC)c3)n(CC(=O)NC(C)C)c(=O)c2c1 (stereo not given)
151 to 152	N#Cc1cc(C(F)(F)F)[nH]c1-c1ccccc1Cl
250 to 255	Cn1c(=O)c(-c2ccccc2)cc2cnc(N)nc21
161 to 164	CNc1cc(Oc2ccc(NC(=O)Nc3ccc(Br)c(C(F)(F)F)c3)cc2)ncn1
114 to 115	OC1CSC(Sc2ccccc2C(F)(F)F)C(O)C1O (stereo not given)
169 to 172	Cc1cccc(Oc2cccc(Oc3ccc4c(c3)OCO4)c2C(=O)O)c1
100 to 101	Cc1cc(OC(=O)c2ccc(Cl)cc2)n(C)n1
158 to 161	Nc1nc(OCCc2ccccc2Cl)nc2c1ncn2C1OC(CO)C(O)C1O (stereo not given)
105 to 106	Cc1nc2c3c(ccn2c1C)[C@@H](OCCS(C)=O)[C@H](O)[C@@H](c1ccccc1)N3 (stereo not given in full)
146 to 148	CCOc1cccc(-c2ccnc3c(C(=O)c4cccs4)cnn23)c1
79 to 80	CCN1c2ncc(CCc3cccnc3)cc2C(=O)N(C)c2cccnc21
82 to 83	OC(C(=Cc1cccnc1)c1ccc(F)cc1)c1ccccc1Cl (stereo not given)
230 to 233	NC(=O)C1CCN(c2cc(-c3ccccc3)nc3ccc(F)cc23)CC1

melting point [°C]	Structure (SMILES)
116 to 118	CN(C)C=C1C(=O)N(c2cccc(Cl)c2)c2ccccc21
102 to 103	CCCc1nn(-c2ccc(C(F)(F)F)cn2)cc1C(=O)OCC
128 to 130	CCC(Cc1ccc(OC)c(C(=O)NCc2ccc(C(F)(F)F)cc2)c1)C(=O)O (stereo not given)
148 to 150	CCOC(=O)C(O)=Cc1ccc(S(=O)c2ccc(F)cc2)cn1 (stereo not given)
80 to 82	O=[N+]([O-])c1cc2c(c(Cl)c1OCc1ccccc1)CCCC2
68 to 68.6	CCOC(=O)C(C)Oc1ccc(N(C)c2nc3cc(Cl)ccc3o2)cc1 (stereo not given)
102 to 104	O=S(=O)(c1ccccc1)n1ncc2c(OCCCl)cccc21
222 to 223	Cc1nc(C)c(Cl)c(NCc2cccc(Oc3ccc4ncc([N+](=O)[O-])n4n3)c2)n1
> 310	O=c1[nH]c2sc(-c3ccccc3)nc2c2ccccc12
139 to 141	O=C(O)C1Cc2ccc3ccccc3c2C1 (single isomer, unassigned; (-))
206 to 209	Cc1nc2c(N)nc3ccccc3c2n1CCCCS(C)(=O)=O
145 to 148	CCCSc1ccc2c3c(cccc13)C(=O)N2
94 to 96	CC(C)[C@H](CCC(=O)OCc1ccccc1)NC(=O)OC(C)(C)C
198 to 200	CS(=O)(=O)c1ccc(-c2[nH]c3ccccc3c2-c2ccc(Cl)cc2)cc1
121 to 122	COC(=O)c1cc(C=O)ccc1OCc1nc(-c2ccco2)oc1C
145 to 146	COc1cc(Nc2cc(C(=O)O)c(C(=O)O)cc2Nc2ccccc2)cc(OC)c1OC
117 to 118	Cc1ccc2c(Cl)c3ccccc3nc2c1
147 to 149	CN(C)CCN1C(=O)c2cscc2N(C)c2ccccc21
127 to 129	CCCC(=O)NCCC1=C(Cc2ccccc2)Cc2ccc(OC)cc21
117 to 118	CC(=O)NCCN1CCN(c2cccccc2=O)CC1
181 to 183	CC(=O)C1=C(C)NC(=O)N(C(C)=O)C1c1ccccc1 (stereo not given)
166 to 168	COc1cc(CCl)ccc1OCc1nc(-c2cccc([N+](=O)[O-])c2)oc1C
